According to patent US11841369B2, “Method for improving quality of therapeutic cell through real-time glutathione measurement” (CELL2IN, INC., priority 2017, dated 2023):

Key:
hUC-MSCs [1] = assay: Oxidative stress resistance capacity (ORC) analysis with RSL3; assay type: cell-based, human; conditions: hUC-MSCs subcultured three times with AA2G 250 μg/mL, vs naive cell group (NC)
Protocol: In addition, GH is calculated as the coefficient of variation or robust coefficient of variation of cellular FR. GRC refers to a value obtained by real-time monitoring of FR after living cells are treated with an oxidizing agent, as calculated by dividing a value obtained by subtracting AUC of a group treated with 0.1-100 mM N-ethylmaleimide (NEM) from FR AUC of an oxidizing agent (diamide, H2O2, etc.)-treated group by a value obtained by subtracting the AUC of NEM-treated group from AUC of the untreated control, and multiplying the resulting value by 100. The FR of the NEM-treated group is a value for increasing the sensitivity of a GRC value by treating it as the blank value of the FR of the cells of interest. […] To remove the MitoFreSH-Tracer from the medium before measurement, the medium was exchanged with fresh 10 mM HEPES-containing HBSS, and a fluorescence image was obtained using a confocal imaging system, Operetta. By comparing GSH levels quantified from control cells not treated with RSL3 or control cells before treated with RSL3, the distribution of GSH expression-changed cells was calculated. Based on the point where the distribution histogram is divided into two peaks, the cells were divided into GSH^High cells (right peak) and GSH^Low cells (left peak), and then a ratio of corresponding cells was expressed as a percentage (%). […]

hUC-MSCs [2] = assay: SDF1α- and PDGF-AA-induced migration capacity of hUC-MSCs; assay type: cell-based, human; conditions: 125 or 250 μg/mL AA2G, three days
Protocol: The inventors observed an effect of the material on stem cells by treating each stem cells with a material for enhancing a glutathione evaluation parameter. When hUC-MSCs were subcultured in a L-AA2G-containing medium, CFU-F, migration capacity, and an anti-inflammatory effect were observed. A CFU-F assay (n=3) was performed by treating hUC-MSCs with 125 or 250 μg/mL of AA2G for three days. As shown in FIGS. 16A and 16B, it was confirmed that, when AA2G was treated, CFU-F increased. In addition, as hUC-MSCs were treated with 125 or 250 μg/mL of AA2G for three days, PDGF-AA-induced migration capacity (n=3) was analyzed. As shown in FIGS. 17A and 17B, it was confirmed that the migration capacity was increased by AA2G treatment. In addition, the reduction in T cell proliferation, a reduction in T cell differentiation, and the promotion of Treg cell differentiation were observed by treating hUC-MSCs with 125 or 250 μg/mL of AA2G for three days. […] Meanwhile, hUC-MSCs were cultured with a glutathione precursor such as γ-glutamyl cysteine (GGC, 0.1, 0.25, and 0.5 mM). A CFU-F assay (n=3) was performed by treating hUC-MSCs with each concentration of GGC for 2 hours. […] In addition, SDF1α and PDGF-AA-induced migration capacities (n=3) were analyzed for hUC-MSCs without treatment with GGC, and SDF1α- and PDGF-AA-induced migration abilities (n=3) were analyzed by treating hUC-MSCs with the increasing concentrations of GGC. STI571 was used as a PDGFR kinase inhibitor. As shown in FIGS. 20A to 20C, it was confirmed that, according to an increase in GGC treatment concentration, SDF1α- and PDGF-AA-induced migration capacities were enhanced.

T cells = assay: Anti-inflammatory effect of treated hUC-MSCs: T cell proliferation, T cell differentiation, Treg cell differentiation; assay type: cell-based; conditions: hUC-MSCs treated with 125 or 250 μg/mL AA2G, three days
Protocol: The inventors observed an effect of the material on stem cells by treating each stem cells with a material for enhancing a glutathione evaluation parameter. When hUC-MSCs were subcultured in a L-AA2G-containing medium, CFU-F, migration capacity, and an anti-inflammatory effect were observed. A CFU-F assay (n=3) was performed by treating hUC-MSCs with 125 or 250 μg/mL of AA2G for three days. As shown in FIGS. 16A and 16B, it was confirmed that, when AA2G was treated, CFU-F increased. In addition, as hUC-MSCs were treated with 125 or 250 μg/mL of AA2G for three days, PDGF-AA-induced migration capacity (n=3) was analyzed. As shown in FIGS. 17A and 17B, it was confirmed that the migration capacity was increased by AA2G treatment. In addition, the reduction in T cell proliferation, a reduction in T cell differentiation, and the promotion of Treg cell differentiation were observed by treating hUC-MSCs with 125 or 250 μg/mL of AA2G for three days.
In addition, hUC-MSCs were cultured with ferrostatin-1 (0.2, 1, 2 and 4 μM) and liproxstatin-1 (0.1, 0.5, 1 and 2 μM), which control a glutathione level in cells by inhibiting lipid oxidation. […] Meanwhile, the hUC-MSCs were treated with 1 μM ferrostatin-1 for 24 hours, 0.2 mM GGC for 2 hours, and 2 mM GSH-EE for 2 hours. As a result, the reduction in T cell proliferation ability and the reduction in T cell differentiation capacity were observed, and promotion of Treg cell differentiation was observed.

In the case of O=C1O[C@H]([C@@H](O)CO)C(O)=C1O[C@H]1O[C@H](CO)[C@@H](O)[C@H](O)[C@H]1O [AA2G, ascorbic acid 2-glucoside], the “FreSH-Tracer-based ORC (GSH^High cells)” value (hUC-MSCs [1]) is reported as “higher”, the PDGF-AA-induced migration capacity (hUC-MSCs [2]) is reported as “increased” and the T cell differentiation (T cells) is reported as “reduction”. For the same compound, the T cell proliferation (T cells) was “reduction”, the Treg cell differentiation (T cells) was “promotion” and the “anti-inflammatory effect of stem cells” value (T cells) was “exhibited”.
